Data from paper PMC8482815, “Targeting Host Glycolysis as a Strategy for Antimalarial Development” (Frontiers in Cellular and Infection Microbiology, 2021).
Values joined by “and” are separate entries in the source; they are usually repeats but may differ in a detail not shown here. Identical values can stand only once.

System: human erythrocytes
Assay: Untargeted metabolomics and 13C-glucose tracing of enolase inhibitor treated erythrocytes
Assay type: cell-based
Settings: 1h
Method: Freshly collected erythrocytes were washed, resuspended to 10% hematocrit in buffer [25mM HEPES (pH 7.4), 120mM NaCl, 5.4mM KCl, 1.8mM CaCl2, and 1mM NaH2PO4], incubated for 1 hour at 37°C, then centrifuged at 2000xg for 5 minutes at 4°C, resuspended in fresh wash buffer to 30-40% hematocrit, and split into 210µL aliquots of packed erythrocytes. […] All samples were incubated at 37°C shaking at 500 RPM. Triplicate samples of supernatants and packed erythrocytes were collected at 0, 0.5, 1, and 6-hour intervals and snap-frozen in liquid N2.
RBC and media samples were extracted at 1:10 and 1:20 dilutions, respectively, in 5:3:2 MeOH : MeCN:H2O v/v/v, and supernatants analyzed on a Thermo Vanquish UHPLC coupled to a Thermo Q Exactive mass spectrometer, as extensively described ([Nemkov et al., 2015]; [Nemkov et al., 2017]). The extraction buffer was supplemented with 40uM 3-^13C lactate to allow absolute quantification of lactate isotopologues, including lactate generated via glycolysis ([1,2,3-^13C3] enriched) vs. the pentose phosphate pathway ([2,3-^13C2] enriched), as described ([Reisz et al., 2016]). Metabolite assignments, peak area integration and isotopologues distributions were determined using Maven (Princeton University) ([Nemkov et al., 2015]; [Nemkov et al., 2017]).
Data were auto-scaled and normalized to zero-hour time points. Metabolites were removed from the dataset if greater than 50% of the samples contained missing values or the relative standard deviation among replicates exceeded 25%. Additionally, data was filtered using the interquartile range to reduce near-constant values from the experiment by 5%.
A principal component analysis of preprocessed data was plotted with the 95% confidence interval minimum volume enclosing ellipsoid for each respective group (MetaboAnalyst, cluster, plotly). A two-way repeated measures analysis of variance (ANOVA) was performed with multiple comparisons corrected for using a false discovery rate p-value cutoff of 0.05. Metabolite-Pathway analysis was performed using the R package of MetaboAnalyst, as previously described ([Xia and Wishart, 2010]). Metabolite-Protein nodal analysis was performed using omicsnet.ca and as previously described ([Zhou and Xia, 2018]).

[1] = treated erythrocytes, one value per replicate sample, polarity +
[2] = treated erythrocytes, one value per replicate sample, polarity -
[3] = treated erythrocytes, replicate samples

Compound: CC(C)(C)C(=O)OCOP(=O)(OCOC(=O)C(C)(C)C)C1CCCN(O)C1=O (stereo not shown) [POMHEX]
- AMP level (metabolomics signal) (replicate samples): 1.96E+06 and 2.60E+06 and 1.22E+06
- ATP level (metabolomics signal) (replicate samples): 1.32E+04 and 2.11E+04 and 3.43E+04
- Adenine level (metabolomics signal) (replicate samples): 1.75E+05 and 1.63E+05 and 1.61E+05
- Cytosine level (metabolomics signal) (replicate samples): 4.76E+05 and 3.43E+05 and 2.67E+05
- L-alanine level (metabolomics signal) (replicate samples): 1.12E+07 and 9.08E+06 and 1.05E+07
- L-arginine level (metabolomics signal) (replicate samples): 4.18E+06 and 1.19E+07 and 3.04E+06
- L-asparagine level (metabolomics signal) (replicate samples): 7.53E+06 and 8.13E+06 and 7.16E+06
- L-aspartate level (metabolomics signal) (replicate samples): 2.28E+07 and 2.29E+07 and 1.75E+07
- L-cysteine level (metabolomics signal) (replicate samples): 2.57E+05 and 1.28E+06 and 6.21E+05
- L-glutamate level (metabolomics signal) (replicate samples): 2.16E+07 and 2.10E+07 and 1.73E+07
- L-glutamine level (metabolomics signal) (replicate samples): 6.97E+07 and 8.81E+07 and 6.57E+07
- L-histidine level (metabolomics signal) (replicate samples): 1.22E+06 and 1.29E+06 and 1.07E+06
- L-isoleucine level (metabolomics signal) (replicate samples): 9.19E+06 and 1.31E+07 and 8.52E+06
- L-leucine level (metabolomics signal) (replicate samples): 1.97E+08 and 2.85E+08 and 1.36E+08
- L-lysine level (metabolomics signal) (replicate samples): 1.46E+06 and 1.53E+06 and 1.05E+06
- L-methionine level (metabolomics signal) (replicate samples): 1.81E+07 and 2.91E+07 and 1.59E+07
- L-phenylalanine level (metabolomics signal) (replicate samples): 1.22E+07 and 1.56E+07 and 8.20E+06
- L-proline level (metabolomics signal) (replicate samples): 4.14E+07 and 6.25E+07 and 4.63E+07
- L-serine level (metabolomics signal) (replicate samples): 6.19E+06 and 5.89E+06 and 5.91E+06
- L-threonine level (metabolomics signal) (replicate samples): 7.85E+06 and 8.68E+06 and 7.03E+06
- L-tryptophan level (metabolomics signal) (replicate samples): 4.00E+06 and 3.89E+06 and 2.67E+06
- L-tyrosine level (metabolomics signal) (replicate samples): 2.39E+07 and 3.62E+07 and 2.21E+07
- L-valine level (metabolomics signal) (replicate samples): 1.59E+08 and 1.34E+08 and 1.66E+08
- dCMP level (metabolomics signal) (replicate samples): 6.47E+03 and 1.42E+04 and 8.65E+03
- dTMP level (metabolomics signal) (replicate samples): 6.95E+05 and 1.44E+06 and 5.66E+05
- glycine level (metabolomics signal) (replicate samples): 2.53E+06 and 2.52E+06 and 2.98E+06
- N-Acyl-D-aspartate (C06380) metabolite signal [1]: 1.39E+05 and 1.05E+05 and 7.72E+04
- Poly-gamma-D-glutamate (C05723) metabolite signal [1]: 4.55E+07 and 6.01E+07 and 4.31E+07
- D-Ribitol 5-phosphate (C01068) metabolite signal [2]: 1.36E+04 and 3.79E+04 and 1.11E+04
- D-glucono-1,5-lactone (C00198) metabolite signal [2]: 3.37E+05 and 3.01E+05 and 3.48E+05
- L-Noradrenaline (C00547) metabolite signal [2]: 3.29E+04 and 4.04E+04 and 2.83E+04
- Oxalosuccinate (C05379) metabolite signal [2]: 9.85E+04 and 9.72E+04 and 1.00E+05
- Pyridoxamine (C00534) metabolite signal [2]: 1.26E+04 and 1.81E+04 and 8.56E+03
- Thioredoxin disulfide (C00343) metabolite signal [2]: 3.49E+04 and 1.17E+05 and 2.13E+04
- 1-4-beta-D-Xylan (metabolite signal) [3]: 1.76E+05 and 2.60E+05 and 1.54E+05
- 2-Hydroxyglutarate/Citramalate (C02630) metabolite signal [3]: 4.45E+04 and 4.76E+04 and 4.24E+04
- 5-6-Dihydrothymine (C00906) metabolite signal [3]: 2.57E+05 and 3.03E+05 and 1.85E+05
- 5-10-Methenyltetrahydrofolate (metabolite signal) [3]: 1.81E+05 and 1.74E+05 and 1.10E+05
- 5-Hydroxyisourate (C11821) metabolite signal [3]: 4.87E+06 and 2.62E+06 and 4.93E+06
- 5-L-Glutamyl-taurine (metabolite signal) [3]: 1.73E+05 and 9.38E+04 and 2.11E+05
- 5-Oxoproline (metabolite signal) [3]: 5.99E+05 and 6.10E+05 and 6.21E+05
- (S)(+)-Allantoin (C02350) metabolite signal [3]: 1.83E+04 and 1.70E+04 and 1.48E+04
- Allantoate (C00499) metabolite signal [3]: 1.28E+05 and 4.06E+05 and 1.02E+05
- Ascorbate (metabolite signal) [3]: 6.30E+04 and 1.08E+05 and 4.97E+04
- CMP-N-acetylneuraminate (metabolite signal) [3]: 6.05E+03 and 4.63E+03 and 2.62E+03
- Carnosine (metabolite signal) [3]: 2.09E+05 and 1.71E+05 and 1.90E+05
- Citrate (C00158) metabolite signal [3]: 1.89E+04 and 2.10E+04 and 1.46E+04
- Creatine (metabolite signal) [3]: 2.57E+08 and 2.12E+08 and 2.30E+08
- Creatinine (metabolite signal) [3]: 2.38E+06 and 2.51E+06 and 2.49E+06
- Cys-Gly (metabolite signal) [3]: 7.57E+05 and 1.20E+06 and 8.09E+05
- D-Glucosamine (metabolite signal) [3]: 6.03E+05 and 3.34E+05 and 1.05E+06
- D-Glucose (C00031) metabolite signal [3]: 4.53E+06 and 6.78E+06 and 3.73E+06
- D-Ribose (C00121) metabolite signal [3]: 1.22E+05 and 1.96E+05 and 1.18E+05
- Dehydroascorbate (metabolite signal) [3]: 4.03E+04 and 3.78E+04 and 2.56E+04
- Dihydrofolate (metabolite signal) [3]: 6.94E+05 and 1.83E+06 and 6.55E+05
- Dimethylglycine (metabolite signal) [3]: 1.12E+06 and 8.60E+05 and 1.04E+06
- Diphosphate (C00013) metabolite signal [3]: 1.40E+04 and 3.85E+04 and 1.73E+04
- Fumarate (C00122) metabolite signal [3]: 8.16E+04 and 8.08E+04 and 7.78E+04
- Glutathione (C00051) metabolite signal [3]: 5.06E+07 and 7.77E+07 and 5.74E+07
- Glutathione disulfide (metabolite signal) [3]: 7.45E+04 and 7.57E+04 and 5.41E+04
- Hypoxanthine (C00262) metabolite signal [3]: 6.66E+03 and 1.71E+04 and 1.69E+04
- IMP (C00130) metabolite signal [3]: 7.81E+04 and 9.15E+04 and 6.22E+04
- Inosine (C00294) metabolite signal [3]: 6.22E+04 and 5.44E+04 and 6.05E+04
- L-Citrulline (metabolite signal) [3]: 5.24E+06 and 4.00E+06 and 4.92E+06
- L-Homoserine (metabolite signal) [3]: 1.76E+05 and 2.52E+05 and 1.58E+05
- Lactate (C01432) metabolite signal [3]: 7.95E+06 and 9.12E+06 and 7.54E+06
- Malate (C00149) metabolite signal [3]: 6.76E+04 and 6.17E+04 and 6.25E+04
- Mannitol (C00392) metabolite signal [3]: 1.25E+05 and 1.54E+05 and 1.02E+05
- N-Acetylneuraminate (metabolite signal) [3]: 1.98E+04 and 1.32E+04 and 1.62E+04
- N-Glycoloyl-neuraminate (metabolite signal) [3]: 7.97E+04 and 1.42E+05 and 5.68E+04
- NAD+ (C00003) metabolite signal [3]: 1.57E+04 and 4.46E+04 and 2.15E+04
- Nicotinamide (C00153) metabolite signal [3]: 4.80E+07 and 5.08E+07 and 4.18E+07
- Ornithine (metabolite signal) [3]: 1.57E+06 and 1.30E+06 and 1.16E+06
- Oxaloacetate (C00036) metabolite signal [3]: 3.29E+04 and 5.49E+04 and 3.03E+04
- Phosphoserine (metabolite signal) [3]: 0.00E+00 (2×) and 1.77E+04
- Putrescine (metabolite signal) [3]: 4.04E+04 and 3.04E+04 and 2.63E+04
- Pyridoxal (C00250) metabolite signal [3]: 5.25E+04 and 8.23E+04 and 7.59E+04
- Pyruvate (C00022) metabolite signal [3]: 5.39E+05 and 7.10E+05 and 4.33E+05
- S-Glutathionyl-L-cysteine (metabolite signal) [3]: 5.57E+04 and 6.02E+04 and 1.82E+04
- Sedoheptulose 1-phosphate (C06222) metabolite signal [3]: 2.81E+03 and 3.84E+03 and 2.38E+03
- Spermidine (metabolite signal) [3]: 7.32E+06 and 6.78E+06 and 6.25E+06
- Spermine (metabolite signal) [3]: 7.58E+06 and 7.10E+06 and 6.92E+06
- Succinate (C00042) metabolite signal [3]: 6.13E+04 and 9.94E+04 and 5.79E+04
- Thymidine (C00214) metabolite signal [3]: 1.12E+04 and 1.26E+04 and 8.73E+03
- UDP (C00015) metabolite signal [3]: 5.07E+04 and 1.42E+05 and 2.88E+04
- UDP-N-acetyl-D-glucosamine (metabolite signal) [3]: 2.55E+03 and 3.51E+03 and 2.64E+03
- UDP-glucose (C00029) metabolite signal [3]: 5.62E+03 and 1.08E+04 and 6.04E+03
- Urate (C00366) metabolite signal [3]: 2.31E+04 and 2.80E+04 and 2.12E+04
- Xanthine (C00385) metabolite signal [3]: 1.88E+05 and 1.43E+05 and 1.48E+05
- alpha-D-Glucosamine 1-phosphate (metabolite signal) [3]: 8.86E+05 and 4.48E+05 and 1.21E+06
- alpha-D-Ribose 1-phosphate (C00620) metabolite signal [3]: 2.29E+04 and 4.78E+04 and 2.91E+04
- gamma-Glutamyl-gamma-aminobutyrate (metabolite signal) [3]: 9.00E+04 and 5.89E+04 and 7.26E+04
- gamma-L-Glutamyl-D-alanine (metabolite signal) [3]: 1.81E+04 and 1.74E+04 and 1.70E+04
- gamma-L-Glutamyl-L-cysteine (metabolite signal) [3]: 1.43E+04 and 3.68E+04 and 6.67E+03
